Experimental data reported in PMC10187092 (Emerging Microbes & Infections, 2023).

Columns and labels:
SARS-CoV-2 3CLpro = SARS-CoV-2 3CLpro (Severe acute respiratory syndrome coronavirus 2, UniProt P0DTD1); type: cell-based
[1] = target: SARS-CoV-2 3CLpro (wild-type) (Severe acute respiratory syndrome coronavirus 2, UniProt P0DTD1); type: cell-based

Compound	rescue of reporter expression in 3CLpro transfected cells (SARS-CoV-2 3CLpro)	inhibition of 3CLpro [1]	potency in dose-response validation [1]
Ac-DEVD-CHO	failed to rescue reporter expression	–	–
CCO[C@@H]1OC(=O)C[C@@H]1NC(=O)[C@@H]1CCCN1C(=O)[C@@H](NC(=O)c1ccc(N)c(Cl)c1)C(C)(C)C [Belnacasan]	failed to rescue reporter expression	–	–
O=c1c2ccccc2[se]n1-c1ccccc1 [Ebselen]	–	no inhibition	–
Cc1ccc(NC(=O)c2ccc(CN3CCN(C)CC3)cc2)cc1Nc1nc(-c2cccnc2)cs1 [Masitinib]	–	negative	–
CC(C)(C)NC(=O)N[C@H](C(=O)N1C[C@H]2[C@@H]([C@H]1C(=O)NC(CC1CCC1)C(=O)C(N)=O)C2(C)C)C(C)(C)C (stereo partly drawn) [Boceprevir]	–	–	weak to moderate potency
Z-FA-FMK	–	–	weak to moderate potency
